In brackets after ≈: the same amount, converted by molar mass. Where a SMILES comes first, the peptide text is derived from it.
Assays:
healthy ICR mice = assay: In vivo systemic toxicity; set-up: species or system mouse
Description: Healthy ICR mice (male, 6–8 weeks old, ∼30 g) were used to determine the in vivo systemic toxicity of the peptide ([Chen et al., 2013]). The mice were randomly divided into six groups (n = 10). Five cohorts were intraperitoneally injected with a single dose of 10, 20, 40, 80, and 160 mg kg^–1 body weight of the peptide dissolved in PBS. The mice injected with PBS were used as control. The survival of mice was inspected for 7 days. All surviving mice were euthanized at the end of the experiments.
For histopathological examination, each group of ICR mice (n = 6) was injected intraperitoneally with PBS or with a single dose of 40 mg kg^–1 body weight of the peptide. At 1, 2, and 7-day post-injection, the mice were euthanized, and the liver, kidney and spleen were collected and fixed with 4% formaldehyde for haematoxylin and eosin staining.

[1] = test system: ESBL-producing E. coli, CRE- and MDR P. aeruginosa, CRE- and MDR A. baumannii; assay: MIC, summary over resistant gram-negative strains; type: cell-based; conditions: summary of Table 4
From the text: (§1) All experiments were repeated at least three times.

E. coli ATCC25922 = assay: MIC, broth dilution; type: cell-based, Escherichia coli
S. aureus ATCC 25923 = assay: MIC, broth dilution; type: cell-based, Staphylococcus aureus; conditions: CLSI broth dilution, MHB, 37°C, 20 h, OD630, at least three repeats; standard strain
From the text: as §1

S. aureus 1176 = assay: MIC, broth dilution; type: cell-based, Staphylococcus aureus; conditions: CLSI broth dilution, MHB, 37°C, 20 h, OD630, at least three repeats; clinical isolate
From the text: as §1

S. aureus 4188 = assay: MIC, broth dilution; type: cell-based, Staphylococcus aureus; conditions: CLSI broth dilution, MHB, 37°C, 20 h, OD630, at least three repeats; clinical isolate, penicillin-resistant
From the text: as §1

S. aureus 9124 = assay: MIC, broth dilution; type: cell-based, Staphylococcus aureus; conditions: CLSI broth dilution, MHB, 37°C, 20 h, OD630, at least three repeats; clinical isolate, MRSA
From the text: as §1

A. baumannii 13079 = assay: MIC, broth dilution; type: cell-based, Acinetobacter baumannii; conditions: CLSI broth dilution, MHB, 37°C, 20 h, OD630, at least three repeats; clinical isolate, CRE, MDR
From the text: as §1

A. baumannii 13012 = assay: MIC, broth dilution; type: cell-based, Acinetobacter baumannii; conditions: CLSI broth dilution, MHB, 37°C, 20 h, OD630, at least three repeats; clinical isolate, CRE, MDR
From the text: as §1

A. baumannii 9068 = assay: MIC, broth dilution; type: cell-based, Acinetobacter baumannii; conditions: CLSI broth dilution, MHB, 37°C, 20 h, OD630, at least three repeats; clinical isolate, CRE, MDR
From the text: as §1

A. baumannii 906 = assay: MIC, broth dilution; type: cell-based, Acinetobacter baumannii; conditions: CLSI broth dilution, MHB, 37°C, 20 h, OD630, at least three repeats; clinical isolate, CRE, MDR
From the text: as §1

S. epidermidis 9092 = assay: MIC, broth dilution; type: cell-based; conditions: CLSI broth dilution, MHB, 37°C, 20 h, OD630, at least three repeats; clinical isolate, MRSE
From the text: as §1

S. epidermidis 6943 = assay: MIC, broth dilution; type: cell-based; conditions: CLSI broth dilution, MHB, 37°C, 20 h, OD630, at least three repeats; clinical isolate, MRSE
From the text: as §1

E. faecalis 901 = assay: MIC, broth dilution; type: cell-based; conditions: CLSI broth dilution, MHB, 37°C, 20 h, OD630, at least three repeats; clinical isolate
From the text: as §1

E. coli 2678 = assay: MIC, broth dilution; type: cell-based, Escherichia coli; conditions: CLSI broth dilution, MHB, 37°C, 20 h, OD630, at least three repeats; clinical isolate, ESBL
From the text: as §1

E. coli ATCC35218 = assay: MIC, broth dilution; type: cell-based, Escherichia coli; conditions: CLSI broth dilution, MHB, 37°C, 20 h, OD630, at least three repeats; standard strain
From the text: as §1

E. coli 2687 = assay: MIC, broth dilution; type: cell-based, Escherichia coli; conditions: CLSI broth dilution, MHB, 37°C, 20 h, OD630, at least three repeats; clinical isolate, ESBL
From the text: as §1

E. faecalis ATCC 29212 = assay: MIC, broth dilution; type: cell-based
Description: as §1
(§2) To study the influence of physiological ions on the antimicrobial activities of the peptides, The MICs of the peptides were also determined against the standard bacterial strains cultured in MHB containing various salts at their physiological concentrations (150 mM NaCl, 4.5 mM KCl, 1 mM MgCl2, 2 mM CaCl2, 6 μM NH4HCO3, and 4 μM FeCl3) ([Ma et al., 2016]).

P. aeruginosa 9014 = assay: MIC, broth dilution; type: cell-based, Pseudomonas aeruginosa; conditions: CLSI broth dilution, MHB, 37°C, 20 h, OD630, at least three repeats; clinical isolate, CRE, MDR
From the text: as §1

P. aeruginosa 9042 = assay: MIC, broth dilution; type: cell-based, Pseudomonas aeruginosa; conditions: CLSI broth dilution, MHB, 37°C, 20 h, OD630, at least three repeats; clinical isolate
From the text: as §1

[2] = test system: human red blood cells (hRBCs); assay: Hemolytic activity determination; type: cell-based; conditions: peptide 100 μg ml^–1; hRBCs in 0.9% sodium chloride, 37°C, 1 h, OD540, 1% Triton X-100 = 100%; three independent experiments
Procedure, shortened: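 Peptides in two-fold dilutions in 0.9% NaCl (final 12.5–200 μg ml^–1) were incubated with fresh citrated hRBCs for 1 h at 37°C. Supernatant OD540 was normalised to saline (0%) and 1% Triton X-100 (100%) controls to give % hemolysis; three independent experiments.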

P. aeruginosa ATCC 27853 = assay: MIC, broth dilution; type: cell-based, Pseudomonas aeruginosa
Description: as §1, §2

[3] = CLSI broth dilution, MHB, 37°C, 20 h, OD630, at least three repeats, standard strain

Question: CC[C@H](C)[C@H](NC(=O)[C@H](CCCCN)NC(=O)[C@H](CCCCN)NC(=O)[C@@H](NC(=O)[C@@H](N)Cc1ccccc1)[C@@H](C)CC)C(=O)N[C@@H](C)C(=O)N[C@@H](CCCCN)C(=O)N[C@@H](CC(C)C)C(=O)N[C@@H](CC(C)C)C(=O)N[C@@H](CCCCN)C(=O)N[C@@H](CCCCN)C(=O)N[C@H](C(=O)N[C@@H](Cc1ccccc1)C(N)=O)[C@@H](C)CC [BmKn2-7K] (H-FIKKIAKLLKKIF-NH2) was tested. Which “histopathological examination of liver, spleen and kidney” value (healthy ICR mice; single intraperitoneal dose 40 mg kg^–1 body weight, 1, 2 and 7 days post-treatment, n = 6, haematoxylin-eosin) did it give?
Answer: no necrosis or drug-induced injury was observed

Question: And the “mice surviving for 7 days” value (healthy ICR mice; single intraperitoneal dose 80 mg kg^–1 body weight, n = 10)?
Answer: 60%

Question: And the survival of mice (healthy ICR mice; single intraperitoneal dose 160 mg kg^–1 body weight, n = 10)?
Answer: died within 24 h

Question: What about the “survival of mice for 7 days” value (healthy ICR mice; single intraperitoneal dose up to 40 mg kg^–1 body weight, n = 10 per cohort) of the same compound?
Answer: all mice

Question: What about the “median lethal dose (LD50)” value (healthy ICR mice; single intraperitoneal injection, ICR mice, 7 days) of the same compound?
Answer: exceeds 80 mg kg^–1 body weight

Question: What about the “MIC against ESBL E. coli, CRE/MDR P. aeruginosa, CRE/MDR A. baumannii” value [1] of the same compound?
Answer: 2.5–10 μg ml^–1

Question: And the MIC (E. coli ATCC25922; CLSI broth dilution, MHB, 6.25 × 10^5 cfu per ml, 37°C, 20 h, OD630, at least three repeats)?
Answer: 5 µg/mL (≈ 3.15 µM)

Question: And the MIC (E. coli ATCC25922; MHB with 4 μM FeCl3)?
Answer: 20 µg/mL (≈ 12.6 µM)

Question: What about the MIC (E. coli ATCC25922; MHB with 6 μM NH4HCO3) of the same compound?
Answer: 20 µg/mL (≈ 12.6 µM)

Question: What about the MIC (S. aureus ATCC 25923) of the same compound?
Answer: 5 µg/mL (≈ 3.15 µM)

Question: And the MIC (S. aureus 1176)?
Answer: 2.5 µg/mL (≈ 1.57 µM)

Question: And the MIC (S. aureus 4188)?
Answer: 2.5 µg/mL (≈ 1.57 µM)

Question: And the MIC (S. aureus 9124)?
Answer: 2.5 µg/mL (≈ 1.57 µM)

Question: What about the MIC (A. baumannii 13079) of the same compound?
Answer: 2.5 µg/mL (≈ 1.57 µM)

Question: What about the MIC (A. baumannii 13012) of the same compound?
Answer: 2.5 µg/mL (≈ 1.57 µM)

Question: What about the MIC (A. baumannii 9068) of the same compound?
Answer: 2.5 µg/mL (≈ 1.57 µM)

Question: What about the MIC (A. baumannii 906) of the same compound?
Answer: 2.5 µg/mL (≈ 1.57 µM)

Question: What about the MIC (S. epidermidis 9092) of the same compound?
Answer: 2.5 µg/mL (≈ 1.57 µM)

Question: What about the MIC (S. epidermidis 6943) of the same compound?
Answer: 2.5 µg/mL (≈ 1.57 µM)

Question: And the MIC (E. faecalis 901)?
Answer: 10 µg/mL (≈ 6.29 µM)

Question: And the MIC (E. coli 2678)?
Answer: 10 µg/mL (≈ 6.29 µM)

Question: What about the MIC (E. coli ATCC35218) of the same compound?
Answer: 10 µg/mL (≈ 6.29 µM)

Question: What about the MIC (E. coli 2687) of the same compound?
Answer: 10 µg/mL (≈ 6.29 µM)

Question: What about the MIC (E. faecalis ATCC 29212; [3]) of the same compound?
Answer: 5 µg/mL (≈ 3.15 µM)

Question: What about the MIC (E. faecalis ATCC 29212; MHB with 4 μM FeCl3) of the same compound?
Answer: 20 µg/mL (≈ 12.6 µM)

Question: And the MIC (E. faecalis ATCC 29212; MHB with 6 μM NH4HCO3)?
Answer: 20 µg/mL (≈ 12.6 µM)

Question: What about the MIC (E. faecalis ATCC 29212; MHB with 1 mM MgCl2) of the same compound?
Answer: 20 µg/mL (≈ 12.6 µM)

Question: And the MIC (E. faecalis ATCC 29212; MHB with 2 mM CaCl2)?
Answer: 10 µg/mL (≈ 6.29 µM)

Question: What about the MIC (E. faecalis ATCC 29212; MHB with 4.5 mM KCl) of the same compound?
Answer: 20 µg/mL (≈ 12.6 µM)

Question: And the MIC (E. faecalis ATCC 29212; MHB with 150 mM NaCl)?
Answer: 10 µg/mL (≈ 6.29 µM)

Question: What about the MIC (E. faecalis ATCC 29212; salt sensitivity test, MHB, control without addition of salt ions) of the same compound?
Answer: 5 µg/mL

Question: What about the MIC (P. aeruginosa 9014) of the same compound?
Answer: 5 µg/mL (≈ 3.15 µM)

Question: And the MIC (P. aeruginosa 9042)?
Answer: 5 µg/mL (≈ 3.15 µM)

Question: And the “percent hRBC hemolysis” value [2]?
Answer: 12.2%

Question: And the MIC (P. aeruginosa ATCC 27853; [3])?
Answer: 5 µg/mL (≈ 3.15 µM)

Question: And the MIC (P. aeruginosa ATCC 27853; MHB with 4 μM FeCl3)?
Answer: 20 µg/mL (≈ 12.6 µM)

Question: And the MIC (P. aeruginosa ATCC 27853; MHB with 6 μM NH4HCO3)?
Answer: 20 µg/mL (≈ 12.6 µM)

Reference: PMC8319832, “Fine-Tuning of Alkaline Residues on the Hydrophilic Face Provides a Non-toxic Cationic α-Helical Antimicrobial Peptide Against Antibiotic-Resistant ESKAPE Pathogens” (Frontiers in Microbiology, 2021)
